Key:
PAR = PAR induced by paraquat in 293T cells (western blot); assay type: cell-based, human; conditions: 3-AB 2 mM, paraquat 0.5 mM
Method: Cell lysates or Co-IP samples were run on homemade 10% or 4-20% gradient pre-cast SDS-PAGE gels (Bio-Rad) under reducing conditions, and then transferred to a polyvinylidene difluoride (PVDF) membrane (Millipore). Membranes were blocked with 5% non-fat dry milk in TBS-Tween (10 mM Tris HCl, pH 7.5, 150 mM NaCl, and 0.1% Tween-20). Antibodies were used at the following concentrations: anti-SIRT1 (Santa Cruz, SC-15404) at 1:500, anti-DBC1 (Bethyl Labotatories, A300-434A) at 1:1000, anti-PARP1 (Cell Signaling, #9542L) at 1:1000, anti-γH2AX (Abcam, ab2893) at 1:1000, anti-H2AX (Abcam, ab11175) at 1:1000, anti-NMNAT1 (Abcam, ab45548) at 1:1000, anti-GAPDH (Millipore, MAB374) at 1:3000, anti-V5 (Invitrogen, R960-25) at 1:3000, anti-beta-tubulin (Upstate, 05-661) at 1:1000, anti-α-actin (Millipore, MAB1501R) at 1:2000, anti-Flag (Sigma, F7425) at 1:3000, anti-PARG (Abcam, ab16060) at 1:1000, p53 (Calbiochem, OP43) at 1:1000, RAD51 (Calbiochem, PC130) at 1:1000, p21 (Neomarker-Labvision-Thermal Fisher, RB-032-P1) at 1:1000, SIRT6 (Cell signaling, D8D12) at 1:1000, Streptavidin-HRP at 1:1000 (Trevigen #4800-30-06), anti-PAR (Trevigen, #4335-MC-100; Abcam, ab14459) at 1:1000 and anti-PARP2 (Santa Cruz, SC-393310) at 1:200 overnight at 4° C. […] Quantifications of images from western blot films were performed using ImageJ (National Institutes of Health, Bethesda, MD).

PARP1-DBC1 interaction = PARP1-DBC1 interaction in treated 293T cells (co-immunoprecipitation); assay type: cell-based, human; conditions: for effect on the PARP1-DBC1 interaction in 293T cells: PJ34 or 3-AB (2 mM) for 24 hrs
Method: 293T, MCF-7, DBC1 wild type and knockout MEFs (a gift from Dr. Eduardo N. Chini from Mayo Clinic) were cultured in Dulbecco's modified Eagle's medium (DMEM, Mediatech, Inc., Herndon, VA) supplemented with 10% fetal bovine serum (Gemini Bio-products, Woodland, CA) with the presence of penicillin and streptomycin (Corning, Manassas, VA). Retroviruses expressing wild-type or mutant Flag-DBC1 proteins were produced by transfecting 293T cells with plasmids encoding VSV-G, Gag-Pol, and pMSCVpuro-Flag-DBC1 constructs using Lipofectamine® 2000 according to the manufacturer's instructions. Media was changed the day after transfection, and virus-containing media was harvested between 48 and 72 hours post-transfection and filtered through a […] (Corning, Manassas, VA). The filtered media was incubated with the target cells in the presence of 5 μg/mL polybrene (Sigma) and selection started using puromycin (2 μg/mL) 48 hrs post-infection. Lentivirus for knocking down DBC1 or SIRT1 was produced by transfecting 293T with psPAX2 (Addgene plasmid #12260), pMD2.G (Addgene plasmid #12259) and shRNA constructs using Lipofectamine® 2000. The virus harvest, infection and selection were same as described for retrovirus production. The transfections of siRNA were performed using Lipofectamine® RNAiMAX, according to the manufacturer's instructions.
(§1) Protein extracts from 293T or mouse liver tissues were lysed in ice-cold buffer (150 mM NaCl, 1 mM EDTA, 1 mM EGTA, 1% Triton X-100, 0.5% NP-40, 10 mM Tris HCl, pH 7.4) supplemented with protease inhibitors cocktail cOmplete tablets (Roche) and phosphatase inhibitor cocktail 2 and 3 (Sigma). Protein concentrations were determined by the Bradford protein assay (Bio-rad). Flag-M2 agarose beads or anti-V5 agarose affinity gel (Sigma) were mixed with the lysate supernatant. Immunoprecipitation was allowed to proceed for 2 hours up to overnight at 4° C. with gentle rotation. After 4 washes with lysis buffer, proteins were either directly boiled in SDS-PAGE sample buffer or eluted from the agarose beads using 3×FLAG peptides (Sigma).
(§2) Cell lysates or Co-IP samples were run on homemade 10% or 4-20% gradient pre-cast SDS-PAGE gels (Bio-Rad) under reducing conditions, and then transferred to a polyvinylidene difluoride (PVDF) membrane (Millipore). Membranes were blocked with 5% non-fat dry milk in TBS-Tween (10 mM Tris HCl, pH 7.5, 150 mM NaCl, and 0.1% Tween-20). […] Quantifications of images from western blot films were performed using ImageJ (National Institutes of Health, Bethesda, MD).

PARP1-DBC1 complex = target: T1, PARP1-DBC1 complex (Homo sapiens, UniProt Q8N163); assay: PARP1-DBC1 dissociation assay (Flag-DBC1 immunoprecipitates incubated with molecules); assay type: binding
T1 construct: expressed in transfected cells; host or cells: 293T cells stably expressing Flag-DBC1 (retroviral pMSCVpuro-Flag-DBC1)
T1 sequence (Q8N163 whole entry, one chain of several): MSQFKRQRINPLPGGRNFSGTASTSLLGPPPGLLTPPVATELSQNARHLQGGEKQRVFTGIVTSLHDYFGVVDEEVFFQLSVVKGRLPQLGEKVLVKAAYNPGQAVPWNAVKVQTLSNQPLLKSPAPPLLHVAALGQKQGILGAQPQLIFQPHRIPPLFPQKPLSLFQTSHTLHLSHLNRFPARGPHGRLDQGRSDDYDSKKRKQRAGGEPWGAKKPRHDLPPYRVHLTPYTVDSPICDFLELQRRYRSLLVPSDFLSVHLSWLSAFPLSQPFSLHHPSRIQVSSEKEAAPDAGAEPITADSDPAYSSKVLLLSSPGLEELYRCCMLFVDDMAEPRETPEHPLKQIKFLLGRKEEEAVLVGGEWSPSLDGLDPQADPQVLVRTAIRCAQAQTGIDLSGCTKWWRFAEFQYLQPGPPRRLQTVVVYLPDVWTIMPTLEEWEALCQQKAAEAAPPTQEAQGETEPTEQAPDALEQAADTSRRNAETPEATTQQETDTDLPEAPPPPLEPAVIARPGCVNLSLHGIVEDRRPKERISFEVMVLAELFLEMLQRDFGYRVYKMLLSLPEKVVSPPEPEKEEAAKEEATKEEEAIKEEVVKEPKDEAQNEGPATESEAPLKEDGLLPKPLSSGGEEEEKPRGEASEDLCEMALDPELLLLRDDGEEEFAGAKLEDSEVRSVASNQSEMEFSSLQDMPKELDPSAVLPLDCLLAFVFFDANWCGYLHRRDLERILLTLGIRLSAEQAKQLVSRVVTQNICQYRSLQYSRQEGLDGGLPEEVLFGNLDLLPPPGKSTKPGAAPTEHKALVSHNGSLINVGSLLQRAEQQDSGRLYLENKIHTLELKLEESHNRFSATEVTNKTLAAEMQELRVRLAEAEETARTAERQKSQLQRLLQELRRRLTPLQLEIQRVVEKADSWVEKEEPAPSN
Method: as §1
Cell lysates or Co-IP samples were run on homemade 10% or 4-20% gradient pre-cast SDS-PAGE gels (Bio-Rad) under reducing conditions, and then transferred to a polyvinylidene difluoride (PVDF) membrane (Millipore). Membranes were blocked with 5% non-fat dry milk in TBS-Tween (10 mM Tris HCl, pH 7.5, 150 mM NaCl, and 0.1% Tween-20). Antibodies were used at the following concentrations: anti-SIRT1 (Santa Cruz, SC-15404) at 1:500, anti-DBC1 (Bethyl Labotatories, A300-434A) at 1:1000, anti-PARP1 (Cell Signaling, #9542L) at 1:1000, anti-γH2AX (Abcam, ab2893) at 1:1000, anti-H2AX (Abcam, ab11175) at 1:1000, anti-NMNAT1 (Abcam, ab45548) at 1:1000, anti-GAPDH (Millipore, MAB374) at 1:3000, anti-V5 (Invitrogen, R960-25) at 1:3000, anti-beta-tubulin (Upstate, 05-661) at 1:1000, anti-α-actin (Millipore, MAB1501R) at 1:2000, anti-Flag (Sigma, F7425) at 1:3000, anti-PARG (Abcam, ab16060) at 1:1000, p53 (Calbiochem, OP43) at 1:1000, RAD51 (Calbiochem, PC130) at 1:1000, p21 (Neomarker-Labvision-Thermal Fisher, RB-032-P1) at 1:1000, SIRT6 (Cell signaling, D8D12) at 1:1000, Streptavidin-HRP at 1:1000 (Trevigen #4800-30-06), anti-PAR (Trevigen, #4335-MC-100; Abcam, ab14459) at 1:1000 and anti-PARP2 (Santa Cruz, SC-393310) at 1:200 overnight at 4° C. The antibodies ATM, ATR, BRCA1, Chk1, Chk2, DNA-PKs and XRCC1 were all from the Bethyl Laboratories. Phospho-Chk1, phospho-Chk2 and phosphor-p53 antibodies were from a DNA Damage Antibody Sampler Kit (Cell Signaling #9947). Secondary antibodies were horseradish peroxidase-coupled sheep anti-mouse IgG (GE Healthcare, UK), donkey anti-rabbit IgG (GE Healthcare, UK). Amersham™ ECL and Amersham Select ECL western blotting detection systems (GE Healthcare, UK) were used to develop signals. Quantifications of images from western blot films were performed using ImageJ (National Institutes of Health, Bethesda, MD).
Equal aliquots of 293T cell lysates with over-expressing Flag-DBC1 were immunoprecipitated using Flag-M2 agarose beads as described above. After four brief washes with lysis buffer, the beads aliquots were incubated with the freshly dissolved NAD^+ or other chemicals for 1 hr at 4° C. with gentle rotation then centrifuged (5000 rpm, 5 min). After completely removing supernatant, the beads were boiled in SDS loading buffer, analyzed by SDS-PAGE, and probed with antibodies.

SIRT1-DBC1 interaction = SIRT1-DBC1 interaction in treated 293T cells; assay type: cell-based, human; conditions: FK866 (5 nM, 24 hrs)
Method: 293T, MCF-7, DBC1 wild type and knockout MEFs (a gift from Dr. Eduardo N. Chini from Mayo Clinic) were cultured in Dulbecco's modified Eagle's medium (DMEM, Mediatech, Inc., Herndon, VA) supplemented with 10% fetal bovine serum (Gemini Bio-products, Woodland, CA) with the presence of penicillin and streptomycin (Corning, Manassas, VA). Retroviruses expressing wild-type or mutant Flag-DBC1 proteins were produced by transfecting 293T cells with plasmids encoding VSV-G, Gag-Pol, and pMSCVpuro-Flag-DBC1 constructs using Lipofectamine® 2000 according to the manufacturer's instructions. […]
Protein extracts from 293T or mouse liver tissues were lysed in ice-cold buffer (150 mM NaCl, 1 mM EDTA, 1 mM EGTA, 1% Triton X-100, 0.5% NP-40, 10 mM Tris HCl, pH 7.4) supplemented with protease inhibitors cocktail cOmplete tablets (Roche) and phosphatase inhibitor cocktail 2 and 3 (Sigma). Protein concentrations were determined by the Bradford protein assay (Bio-rad). […]
as §2, with “(Millipore).” for “(Millipore). Membranes were blocked with 5% non-fat dry milk in TBS-Tween (10 mM Tris HCl, pH 7.5, 150 mM NaCl, and 0.1% Tween-20).”

cellular NAD^+ levels = assay: NAD+ quantification in 293T cells; assay type: cell-based, human; conditions: treatment of 293T cells
Method: NAD^+ quantification was conducted with an NAD/NADH Quantification Kit (Biovision, Milpitas, CA) following the manufacturer's instructions and normalized to soluble protein content.

[1] = test system: p53 and RAD51 pulled down with Flag-DBC1; assay: Interaction of DNA repair proteins with Flag-DBC1 in 293T cells; assay type: cell-based, human; conditions: 0.5 mM, 24 hrs
Method: as §1, §2

DBC1WT = target: T2, DBC1WT (Homo sapiens, UniProt Q8N163); assay: Biotin-NAD+ binding assay, DBC1 wild type; conditions: unlabeled competitor
T2 construct: expressed in transfected cells; host or cells: 293T cells
T2 sequence (Q8N163 whole entry): as the sequence (Q8N163 whole entry, one chain of several) above
Method: Lysates of 293T cells expressing Flag-DBC1 or V5/his-DBC1 were prepared as described above and bound to an anti-Flag high sensitivity M2 coated 96-well plate (Sigma) or His-Select® high sensitivity nickel coated 96-well plate (Sigma) by incubating for 3-4 hrs at 4° C., then washed three times with lysis buffer. Biotin-NAD^+ (Trevigen), or specified molecules were incubated in the plates overnight at 4° C. After washing twice with PBS (pH 7.4) and twice with PBS-T (0.1% Triton X-100), streptavidin-HRP (Trevigen, 1:500) in PBS-T was added to each well and incubated for 1 hr at room temperature. After washing twice with PBS (pH 7.4) and twice with PBS-T, 100 μl of PeroxyGlow™ A and B chemiluminescent substrates (Trevigen) mixture (1:1) was added into each well for 1 min followed by immediate quantification of chemiluminescence on a EnSpire 2300 Multi-label reader (Perkin Elmer). Binding curves were calculated using the “one site, specific binding” formula of GraphPad.

SMILES: NC(=O)c1cccc(N)c1 [3-AB, 3-aminobenzamide]
- PAR induced by paraquat (PAR): inhibitory effect
- effect on the PARP1-DBC1 interaction in 293T cells (PARP1-DBC1 interaction): no effect
- effect on the PARP1-DBC1 complex (PARP1-DBC1 complex; 2 mM, 1 hr): no effect

SMILES: Nc1ncnc2c1ncn2[C@@H]1O[C@H](COP(=O)(O)OP(=O)(O)OC[C@H]2OC(O)[C@H](O)[C@@H]2O)[C@@H](O)[C@H]1O (stereo partly drawn) [ADPr, ADP-ribose]
- effect on the PARP1-DBC1 complex (PARP1-DBC1 complex; 200 μM, 1 hr): no effect

SMILES: Nc1ncnc2c1ncn2[C@@H]1O[C@H](COP(=O)(O)OP(=O)(O)OP(=O)(O)O)[C@@H](O)[C@H]1O [ATP, adenosine triphosphate]
- effect on the PARP1-DBC1 complex (PARP1-DBC1 complex; 200 μM, 1 hr): no effect

SMILES: NC(=O)c1ccc[n+]([C@@H]2C[C@H](COP(=O)(O)OP(=O)(O)OC[C@H]3O[C@@H](n4cnc5c(N)ncnc54)[C@H](O)[C@@H]3O)[C@@H](O)[C@H]2O)c1 [Carba-NAD, Carbanicotinamide adenine dinucleotide]
- effect on the PARP1-DBC1 complex (PARP1-DBC1 complex; non-hydrolysable NAD^+ analogue, concentration not given): abrogated

SMILES: O=C(/C=C/c1cccnc1)NCCCCC1CCN(C(=O)c2ccccc2)CC1 [FK866]
- SIRT1-DBC1 interaction in cells (SIRT1-DBC1 interaction): slightly diminished
- PARP1-DBC1 interaction in HEK293T cells (PARP1-DBC1 interaction; FK866, 24 hrs): increased

SMILES: NC(=O)C1=CN([C@@H]2O[C@H](COP(=O)(O)OP(=O)(O)OC[C@H]3O[C@@H](n4cnc5c(N)ncnc54)[C@H](O)[C@@H]3O)[C@@H](O)[C@H]2O)C=CC1 [NADH]
- effect on the PARP1-DBC1 complex (PARP1-DBC1 complex; 200 μM, 1 hr): less effective than NAD^+

SMILES: NC(=O)c1cccnc1 [NAM, Nicotinamide]
- effect on the PARP1-DBC1 complex (PARP1-DBC1 complex; 500 μM, 1 hr): no effect

SMILES: NC(=O)c1ccc[n+]([C@@H]2O[C@H](CO)[C@@H](O)[C@H]2O)c1 [NR, Nicotinamide Riboside]
- cellular NAD^+ levels (cellular NAD^+ levels): raises
- PARP1-DBC1 complex in 293T cells (PARP1-DBC1 interaction; treatment of 293T cells with NR): dissociates
- effect on the PARP1-DBC1 complex (PARP1-DBC1 complex; 200 μM, 1 hr): no effect

SMILES: CN(C)CC(=O)Nc1ccc2[nH]c(=O)c3ccccc3c2c1 [PJ-34]
- effect on the PARP1-DBC1 interaction in 293T cells (PARP1-DBC1 interaction): no effect

SMILES: Nc1ncnc2nc[nH]c12 [adenine]
- effect on the PARP1-DBC1 complex (PARP1-DBC1 complex; 200 μM, 1 hr): less effective than NAD^+

SMILES: Nc1ncnc2c1ncn2[C@@H]1O[C@H](CO)[C@@H](O)[C@H]1O [adenosine]
- effect on the PARP1-DBC1 complex (PARP1-DBC1 complex; 200 μM, 1 hr): no effect

SMILES: C[n+]1ccc(-c2cc[n+](C)cc2)cc1 [paraquat]
- interaction of p53 and RAD51 with Flag-DBC1 [1]: did not change

SMILES: NC(=O)c1ccc[n+]([C@@H]2O[C@H](COP(=O)([O-])OP(=O)(O)OC[C@H]3O[C@@H](n4cnc5c(N)ncnc54)[C@H](O)[C@@H]3O)[C@@H](O)[C@H]2O)c1 [unlabeled NAD^+]
- competition of labeled NAD^+ bound to DBC1 (DBC1WT): competed off

Source: patent US11957703B2, “Modulating Nudix homology domain (NHD) with nicotinamide mononucleotide analogs and derivatives of same” (President and Fellows of Harvard College, priority 2017, dated 2024)
